What was measured:
α-amylase = test: In vitro α-amylase (AA) inhibition assay; settings: mean ± SD of three replicates; for IC50: read-out: Mean IC50 α-Amylase (AA)
Method: Then, 180 µL of Labtest (the amylase substrate) was added and the samples were incubated for 8 min, followed by measuring the first reaction at 620 nm to obtain (X1). Afterwards, the reaction mixture was incubated for an additional 5 min at 37 °C; then, the second reaction was measured to obtain the final reading (X2). […] The results were expressed as IC50 µg/mL (as well as µM) and were determined from the standard curves.

HCT-116 carcinoma cells = test: Annexin-V-FITC/PI flow cytometry, HCT-116; format: cell-based, human; settings: 50 µg/mL, 48 h; for Early apoptotic cells (Annexin-V positive, PI negative): lower right quadrant; for Late apoptotic cells (Annexin-V and PI positive): upper right quadrant
Method: In order to examine the effect of compounds 3a and 3f on the apoptosis of HCT-116 and LoVo carcinoma cells, the Annexin-V-FITC probe was used and flow cytometry analyses were performed (Figure 7).
The percentages of the early apoptotic cells (Annexin-V positive and propidium iodide, PI negative) and late apoptotic cells (both Annexin-V and PI positive) were then calculated. Annexin V-PI staining was also performed to distinguish apoptotic and necrotic cell deaths.
The distribution of early and late apoptotic cells after treatment with compounds 3a and 3f was carried out using an Annexin V-FITC Apoptosis Detection Kit (BioVisionResearch Products—USA). HCT-116 and LoVo carcinoma cells were seeded in 60 mm^2 culture dishes and treated with the vehicles DMSO, and compounds 3a and 3f (50 µg/mL) for 48 h. Cells were then harvested, washed twice with PBS and resuspended in an Annexin-V binding buffer (BioVisionResearch Products—USA). Finally, the cells were stained with Annexin V-FITC and propidium iodide (PI). The fluorescent intensity of the stained cancer cells was determined using an FITC signal detector (usually FL1) and PI staining with the phycoerythrin emission signal detector (through quadrant statistics for necrotic and apoptotic cell populations).

[1] = biological target: purified recombinant human LDHA protein (Homo sapiens, UniProt P00338); test: Lactate dehydrogenase A (LDHA) inhibitory assay; format: biochemical; settings: for Fold change of LDHA inhibition as compared to 0.1 mg/mL: % inhibition at 0.200 mg/mL divided by % inhibition at 0.100 mg/mL; for inhibition at 100 µg/mL: at 0.1 mg/mL; for inhibition at 100 µg/mL / inhibition at 200 µg/mL: read-out: LDHA mean % inhibition ± SD; for inhibition at 200 µg/mL: at 0.2 mg/mL
Method: The LDHA inhibitory effectiveness was investigated by measuring the amounts of consumed NADH [73]. […] The fluorescence of NADH, which has an excitation wavelength of 340 nm and an emission wavelength of 460 nm, was detected using a spectrofluorometer. […] The LDHA inhibitory efficiency was expressed as an inhibition percentage, which was determined via a comparison with the negative control experiments.

Bcl-2 gene = test: qRT-PCR expressional level of Bcl-2 gene; format: cell-based, human; settings: 10 µg/mL, 24 h, HCT-116, vs negative control
Method: Considering these facts, enhancing apoptosis has been extensively studied as a potential drug target in cancer therapy, therefore, in this study, we investigated the effects of the most cytotoxic compounds, 3a and 3f, (at 10 µg/mL, 24 h incubation) on the expressional levels of these apoptotic regulator genes (Bax and Bcl-2) using quantitative reverse transcription–polymerase chain reactions (qRT-PCR).
(§1) Briefly, in a 25 mL flask (1 × 10^6 cells/flask), the human colon cancer cell lines (HCT-116 and LoVo) were grown for 24 h. After replacing the culture media with a medium containing 1% FBS for 24 h, the cells were treated with 10 µg/mL of each tested compound in 2 mL of fresh medium containing 1% FBS, or 0.25% DMSO, which was used as the negative control. The cells were adherent cells and they were detached using trypsin after being washed with ice-cold phosphate-buffered saline (PBS).
(§2) Primers specific for the Bax, Bcl-2 and Caspase-3 genes were designed using the primer blast (https://www.ncbi.nlm.nih.gov/tools/primer-blast/ accessed on 9 January 2023) software. The primers were used in the RT-qPCR analysis to amplify fragments of 100–200 bp in length (Table 11).
The RNeasy Mini Kit (Qiagen, Hilden, Germany) was used to extract the total RNA. The RNA purity, quality and quantity were checked using a Nanodrop 8000 spectrophotometer (Thermo Fisher Scientific, USA). […]

caspase-3 gene = test: qRT-PCR expressional level of caspase-3 gene; format: cell-based, human; settings: 10 µg/mL, 24 h
Method: Therefore, in this study the expressional levels of caspase-3 as a major apoptosis effector were evaluated in 3a- and 3f-treated HCT-116 and LoVo cell cultures (10 µg/mL, for 24 h incubation), using qRT-PCR analysis.
as §1, §2
The RNeasy Mini Kit (Qiagen, Hilden, Germany) was used to extract the total RNA. The RNA purity, quality and quantity were checked using a Nanodrop 8000 spectrophotometer (Thermo Fisher Scientific, USA). The Hyperscript Kit (GeneAll, Seoul, Korea) and random hexamers (GeneAll, Seoul, Korea ) were used to reverse-transcript 1 µg of RNA from each sample into cDNA as described in the manufacturer’s protocol.
A QuantStudio 7Flex Detection System (Applied Biosystems, Thermo Fischer Scientific, Inc., USA) was used to measure the mRNA expression of Bax, Caspase-3 and Bcl-2. The reactions for the synthesis of cDNA were carried out using an iScript One-Step RT-PCR Kit with SYBR Green (cat no: 170–8892; Bio-Rad, Inc., Hercules, CA, USA). Briefly, primers (Table 10) were added to the reaction mixture at a final concentration of 10 pM. Thus, 5 µL of each cDNA sample were added to a […] PCR mixture consisting of 12.5 µL of 2 × iScript One-Step RT-PCR Kit with SYBR Green, 0.5 µL of primers for Bax, Caspase-3 and Bcl-2 as well as GAPDH (Macrogen, Seoul, Korea), and 7 µL RNase/DNase-free water (Qiagen, DE). The thermal cycling conditions for Bax, Caspase-3 and Bcl-2 were established as 5 min at 95 °C, followed by 40 cycles of 30 s at 95 °C and 30 s at 60 °C, and finally 10 s at 95 °C. The presence of a single melting temperature peak verified the specificity of each primer. The expression of a house-keeping gene, GAPDH, was used as an endogenous control for the current work.

[2] = DPPH radical scavenging assay; format: biochemical; settings: for Mean IC50 for scavenging initial DPPH radicals: mean ± SD of three replicates; for IC50: mean ± SD, converted from mg/mL, read-out: Mean IC50 for scavenging initial DPPH radicals (converted)
In short: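 Ethanolic DPPH mixed 1:1 with test compound, BHT as reference antioxidant, incubated 1 h at room temperature in darkness. Residual DPPH absorbance read at 519 nm against a no-compound control; scavenging % = (1 − Acompound/AControl) × 100, from three independent triplicate measurements.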

O=c1c2cc(Cl)ccc2[nH]c(=S)n1-c1cccc(C(F)(F)F)c1 [Compound 3a, 6-Chloro-2-thioxo-3-(3-trifluoromethyl-phenyl)-2,3-dihydro-1H-quinazolin-4-one]
Mean IC50 α-Amylase (AA) (α-amylase): 124.333 ± 4.042 µg/mL | IC50 (α-amylase): 349 µM | Early apoptotic cells (Annexin-V positive, PI negative) (HCT-116 carcinoma cells): 14.6% | Late apoptotic cells (Annexin-V and PI positive) (HCT-116 carcinoma cells): 6.56% | Fold change of LDHA inhibition as compared to 0.1 mg/mL [1]: 1.84 fold | inhibition at 100 µg/mL [1]: 53.5 ± 1.13% | inhibition at 200 µg/mL [1]: 98.5 ± 1.34% | IC50 ([1]; mean ± SD of three replicates): 273 µM | Expressional level of anti-apoptotic gene Bcl-2 (Bcl-2 gene): 0.635 fold | Expression level of caspase-3 gene (upregulated) (caspase-3 gene; HCT-116, vs negative control): 3.731 fold | Expression level of caspase-3 gene (upregulated) (caspase-3 gene; LoVo, vs negative control): 2.6026 fold | Mean IC50 for scavenging initial DPPH radicals [2]: 68 ± 4 µg/mL | IC50 [2]: 191 µM

O=c1c2cc(Cl)ccc2[nH]c(=S)n1-c1ccc([N+](=O)[O-])cc1 [Compound 3f, 6-Chloro-3-(4-nitro-phenyl)-2-thioxo-2,3-dihydro-1H-quinazolin-4-one]
Mean IC50 α-Amylase (AA) (α-amylase): 111.667 ± 3.512 µg/mL | IC50 (α-amylase): 335 µM | Early apoptotic cells (Annexin-V positive, PI negative) (HCT-116 carcinoma cells): 9.59% | Late apoptotic cells (Annexin-V and PI positive) (HCT-116 carcinoma cells): 5.32% | Fold change of LDHA inhibition as compared to 0.1 mg/mL [1]: 1.59 fold | inhibition at 100 µg/mL [1]: 21.5 ± 1.56% | inhibition at 200 µg/mL [1]: 34.2 ± 1.77% | Expressional level of anti-apoptotic gene Bcl-2 (Bcl-2 gene): 0.345 fold | Expression level of caspase-3 gene (upregulated) (caspase-3 gene; HCT-116, vs negative control): 6.071 fold | Expression level of caspase-3 gene (upregulated) (caspase-3 gene; LoVo, vs negative control): 6.9340 fold | Mean IC50 for scavenging initial DPPH radicals [2]: 227 ± 10 µg/mL | IC50 [2]: 680 µM

Reference: publication PMC10610505, “Synthesis and Biological Evaluation of Some New 3-Aryl-2-thioxo-2,3-dihydroquinazolin-4(1H)-ones and 3-Aryl-2-(benzylthio)quinazolin-4(3H)-ones as Antioxidants; COX-2, LDHA, α-Glucosidase and α-Amylase Inhibitors; and Anti-Colon Carcinoma and Apoptosis-Inducing Agents” (Pharmaceuticals, 2023)
